Test systems include 786-0; BT-549; COLO 205; HCT-15; HL-60; Hs-578T; K562; MCF7; NCI-H460; NCI/ADR-RES; OVCAR-4; PC-3; SF-295; SK-MEL-2; TK-10; UO-31; SF-539.
Holding throughout (test): NCI-60 cell line screen, 48 h

Molecules are shown by their SMILES.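 Compound exposure: 48 hours, 5 concentrations, 96-well plates. Here, GI50 denotes the concentration required for 50% inhibition of growth.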 Calls of active or inactive are those of the source. Cut-off read from the data, not from the text of the source: active = GI50 up to about 1.1 µM and inactive = higher.

In the case of `CC(=O)Oc1cc(-c2oc3cc(OC(C)=O)c(C4OC(CO)C(O)C(O)C4O)c(OC(C)=O)c3c(=O)c2O)c(OC(C)=O)cc1O` (centres undefined), the GI50 in the assay with 786-0 is > 100 µM (inactive); in the assay with BT-549 it was > 100 µM (inactive); in the assay with COLO 205, > 100 µM (inactive); in the assay on HCT-15, above 100 µM; in the assay on HL-60, > 100 µM (inactive); in the assay with Hs-578T, > 100 µM (inactive). For the same compound, the GI50 in the assay on K562, in the assay on MCF7, in the assay with NCI-H460, in the assay on NCI/ADR-RES, in the assay with OVCAR-4 and in the assay on PC-3 was > 100 µM (inactive) in each case. Also, the GI50 with SF-295, in the assay with SK-MEL-2, with TK-10 and with UO-31 was > 100 µM (inactive) in each case.
For `CC1(C)CN=C(Nc2ccc(F)c(Cl)c2)S1`, the GI50 is > 100 µM (inactive) with 786-0; > 100 µM (inactive) in the assay on BT-549; > 100 µM (inactive) in the assay with COLO 205; above 100 µM in the assay with HCT-15; > 100 µM (inactive) in the assay on HL-60; > 100 µM (inactive) in the assay with Hs-578T. Further, the GI50 in the assay on K562, with MCF7, with NCI/ADR-RES, in the assay on OVCAR-4, with PC-3 and with SF-295 was > 100 µM (inactive) each time. Moreover, the GI50 in the assay on SF-539, in the assay on SK-MEL-2, in the assay on TK-10 and in the assay on UO-31 was > 100 µM (inactive) throughout.
For the compound `S=C(Nc1ccc2c(c1)oc1ccccc12)c1cccnc1`, the GI50 was 35.3 µM (inactive) in the assay with 786-0; 37.1 µM (inactive) in the assay with BT-549; > 100 µM (inactive) with COLO 205; above 100 µM in the assay with HCT-15; > 10 µM (inactive) in the assay on Hs-578T; 40.9 µM (inactive) in the assay on MCF7. Besides, the GI50 is 24.6 µM (inactive) in the assay on NCI-H460; 25.1 µM (inactive) with NCI/ADR-RES; 33.7 µM (inactive) with OVCAR-4; 55.3 µM (inactive) in the assay on PC-3; 29.9 µM (inactive) in the assay with SF-295; 30.5 µM (inactive) with SK-MEL-2. Further, the figures for the GI50 in the assay with TK-10 and with UO-31 were 30.5 µM (inactive) and 22.7 µM (inactive), respectively.
Consider `Cc1ccc2nc(-c3ccccc3)c(N=O)n2c1`, for which the GI50 is 40.9 µM (inactive) in the assay on 786-0; 37.1 µM (inactive) with BT-549; 35.7 µM (inactive) in the assay on COLO 205; 34 µM in the assay with HCT-15; 79.4 µM (inactive) in the assay with Hs-578T; 91.2 µM (inactive) in the assay on K562. Also, the GI50 with MCF7 is 11.6 µM (inactive); in the assay on NCI-H460, 50.1 µM (inactive); in the assay on NCI/ADR-RES, 46.2 µM (inactive); with OVCAR-4, 26.2 µM (inactive); in the assay with PC-3, 62.7 µM (inactive); with SF-295 it was 87.1 µM (inactive). Further, the GI50 in the assay with SF-539 was 29.2 µM (inactive); in the assay on SK-MEL-2 it was > 100 µM (inactive); with TK-10 it was 38.3 µM (inactive); in the assay on UO-31, 66.8 µM (inactive).
Turning to `O=C1CCCC2=C1CC1=C(CCCC1=O)N2c1ccc([N+](=O)[O-])cc1`, the GI50 in the assay with 786-0 is > 100 µM (inactive); in the assay with BT-549 it was > 100 µM (inactive); in the assay with HCT-15 it was above 100 µM; with HL-60 it was > 100 µM (inactive); in the assay with Hs-578T, > 100 µM (inactive); in the assay with K562 it was > 100 µM (inactive). Also, the GI50 in the assay with MCF7, in the assay on NCI-H460, in the assay with NCI/ADR-RES, in the assay with OVCAR-4, in the assay on PC-3 and in the assay on SF-539 was > 100 µM (inactive) throughout. Further, the GI50 with TK-10 and in the assay with UO-31 was > 100 µM (inactive) each time.
As to `Nc1nnc2oc3ccc4ccccc4c3cc1-2`, the GI50 in the assay on 786-0 was 34 µM (inactive); in the assay with BT-549, 33.8 µM (inactive); in the assay with COLO 205, 23.6 µM (inactive); with HCT-15, 28 µM; with HL-60 it was 21.9 µM (inactive); in the assay on Hs-578T, 54.5 µM (inactive). In addition, the GI50 in the assay on K562 was 37.5 µM (inactive); with MCF7, 28 µM (inactive); with NCI-H460, 27 µM (inactive); in the assay on NCI/ADR-RES it was 30.9 µM (inactive); in the assay with OVCAR-4 it was 30.8 µM (inactive); in the assay with PC-3 it was 32.7 µM (inactive). Besides, the GI50 with SF-295 is 26.4 µM (inactive); with SK-MEL-2, 27.7 µM (inactive); with TK-10, 42 µM (inactive); with UO-31 it was 32 µM (inactive).
In the case of `COc1cccc(C[C@H]2COC(=O)[C@]2(O)Cc2cccc(OC)c2)c1`, the GI50 was > 100 µM (inactive) in the assay on 786-0; > 100 µM (inactive) with BT-549; > 100 µM (inactive) in the assay with COLO 205; above 100 µM in the assay with HCT-15; 72.6 µM (inactive) with HL-60; > 100 µM (inactive) in the assay on Hs-578T. Besides, the GI50 with K562 is > 100 µM (inactive); in the assay with NCI-H460, 48.2 µM (inactive); with NCI/ADR-RES, 66.5 µM (inactive); in the assay on OVCAR-4, 90.4 µM (inactive); with PC-3 it was > 100 µM (inactive); in the assay on SF-295 it was 83 µM (inactive). Moreover, the GI50 in the assay with SF-539 was > 100 µM (inactive); with SK-MEL-2 it was > 100 µM (inactive); in the assay on TK-10, 70.6 µM (inactive); in the assay with UO-31, > 100 µM (inactive).
Consider `COc1c(Cl)ccc(Cl)c1-c1nnc(-c2c(Cl)c(Cl)c(Cl)c(Cl)c2-c2nc3cc(C(=O)c4ccccc4)ccc3[nH]2)o1`, for which the GI50 with 786-0 was 73.6 µM (inactive); in the assay on BT-549, 76.7 µM (inactive); with COLO 205, 21.9 µM (inactive); in the assay with HCT-15, 35.7 µM; with HL-60, 34.5 µM (inactive); in the assay with Hs-578T, 42.2 µM (inactive). For the same compound, the GI50 in the assay on K562 was 28.9 µM (inactive); with MCF7, 31.6 µM (inactive); with NCI/ADR-RES it was 28.3 µM (inactive); in the assay with OVCAR-4 it was 43.5 µM (inactive); in the assay with PC-3, 46 µM (inactive); with SF-295 it was 29.4 µM (inactive). Further, the GI50 is 22.1 µM (inactive) with SF-539, 37.7 µM (inactive) in the assay on SK-MEL-2, > 100 µM (inactive) in the assay on TK-10 and 75.7 µM (inactive) in the assay on UO-31.
On to `O=C(Nc1ccc2oc(=O)c(C(=O)O)cc2c1)Oc1ccccc1`, for which the GI50 was > 100 µM (inactive) in the assay with 786-0; > 100 µM (inactive) in the assay on BT-549; > 100 µM (inactive) in the assay on COLO 205; above 100 µM in the assay on HCT-15; > 100 µM (inactive) in the assay with Hs-578T; > 100 µM (inactive) in the assay on K562. Moreover, the GI50 with MCF7, in the assay with NCI-H460, in the assay with NCI/ADR-RES, in the assay with OVCAR-4, in the assay on PC-3 and in the assay on SF-295 was > 100 µM (inactive) in each case. The GI50 with SF-539, in the assay with SK-MEL-2, with TK-10 and with UO-31 was > 100 µM (inactive) each time.
In the case of `CC(=O)OCC(OC(C)=O)C(OC(C)=O)C(OC(C)=O)C(/C=N\Nc1nc2ccccc2c(=O)[nH]1)OC(C)=O` (centres undefined), the GI50 with 786-0 was > 100 µM (inactive); in the assay with BT-549, > 100 µM (inactive); in the assay on COLO 205, > 100 µM (inactive); in the assay on HCT-15, above 100 µM; in the assay on HL-60, > 100 µM (inactive); with Hs-578T, > 100 µM (inactive). In addition, the GI50 with K562, with MCF7, in the assay with NCI-H460, in the assay with NCI/ADR-RES, in the assay with PC-3 and with SF-295 was > 100 µM (inactive) in each case. Also, the GI50 in the assay with SF-539, with SK-MEL-2 and with UO-31 was > 100 µM (inactive) each time.
For the compound `O=S(=O)(O)c1ccccc1/N=N\c1ccc(/N=N/c2c(O)ccc3ccccc23)c(S(=O)(=O)O)c1`, the GI50 was > 100 µM (inactive) in the assay on 786-0; > 100 µM (inactive) in the assay with BT-549; > 100 µM (inactive) in the assay on COLO 205; above 100 µM with HCT-15; > 100 µM (inactive) in the assay with Hs-578T; > 100 µM (inactive) with K562. The GI50 with NCI/ADR-RES, in the assay with OVCAR-4, with PC-3, in the assay with SF-295, in the assay with SK-MEL-2 and with TK-10 was > 100 µM (inactive) each time. Besides, the GI50 with UO-31 is > 100 µM (inactive).
Consider `Cc1sccc1C(=S)Nc1ccc(Cl)c(/C=N/OC(C)(C)C)c1`, for which the GI50 with 786-0 was 21.1 µM (inactive); with BT-549, 17.7 µM (inactive); in the assay on COLO 205, 13.9 µM (inactive); in the assay on HCT-15 it was 15 µM; in the assay on HL-60, 16.9 µM (inactive); in the assay on Hs-578T, 22.3 µM (inactive). Moreover, the GI50 in the assay with MCF7 was 11.8 µM (inactive); in the assay on NCI/ADR-RES, 17.8 µM (inactive); in the assay on OVCAR-4 it was 15.2 µM (inactive); in the assay with PC-3, 15.4 µM (inactive); with SF-295, 16.7 µM (inactive); with SF-539, 31.5 µM (inactive). Besides, the GI50 with SK-MEL-2 is 15.5 µM (inactive); in the assay with TK-10, 19.1 µM (inactive); in the assay with UO-31, 12.5 µM (inactive).
With `C[C@H]1[C@@H](c2ccccc2)O[B-](c2ccccc2)(c2ccccc2)[N+]1(C)C`, the GI50 in the assay on 786-0 was 78.2 µM (inactive); with BT-549 it was 33.5 µM (inactive); in the assay on COLO 205, 16.1 µM (inactive); in the assay with HCT-15, 38.4 µM; in the assay with HL-60, > 100 µM (inactive); with Hs-578T, 51.9 µM (inactive). Further, the GI50 with K562 is 48.5 µM (inactive); in the assay on NCI-H460 it was > 100 µM (inactive); in the assay with NCI/ADR-RES it was 76.7 µM (inactive); in the assay with OVCAR-4 it was > 100 µM (inactive); with PC-3 it was < 0.01 µM (active); in the assay on SF-295, 32.6 µM (inactive). Moreover, the GI50 with SF-539 was 33.3 µM (inactive); with SK-MEL-2, > 100 µM (inactive); in the assay with TK-10 it was 36.3 µM (inactive); in the assay on UO-31 it was 19.3 µM (inactive).

These data come from ChEMBL document CHEMBL1201862, “PubChem BioAssay data set” (2004).
